According to article PMC9578392, “Safety, Tolerability, and Pharmacokinetics of the Novel Antiviral Agent Ensitrelvir Fumaric Acid, a SARS-CoV-2 3CL Protease Inhibitor, in Healthy Adults” (Antimicrobial Agents and Chemotherapy, 2022):

What was measured:
CYP3A = test: Drug-drug interaction with midazolam (cohort G); settings: ensitrelvir 750/250 mg, from increase in AUC0-inf of midazolam
[1] = Treatment-emergent adverse events, multiple dose (part 2); assay type: in vivo, human; settings: for Abdominal pain, Events / Abdominal pain, n (%) / Blood creatine phosphate increased, Events / Blood creatine phosphate increased, n (%) / Blood triglyceride increased, Events / Blood triglyceride increased, n (%) / C-reactive protein increased, Events / C-reactive protein increased, n (%) / Diarrhea, Events / Diarrhea, n (%) / Dizziness, Events / Dizziness, n (%) / Feeling hot, Events / Feeling hot, n (%) / Gastrointestinal disorders, Events / Gastrointestinal disorders, n (%) / General disorders and administration site conditions, Events / General disorders and administration site conditions, n (%) / Headache, Events / Headache, n (%) / High-density lipoprotein cholesterol decreased, Events / High-density lipoprotein cholesterol decreased, n (%) / Investigations, Events / Investigations, n (%) / Nausea, Events / Nausea, n (%) / Nervous system disorders, Events / Nervous system disorders, n (%) / Oropharyngeal pain, Events / Oropharyngeal pain, n (%) / Participants with any TEAE, Events / Participants with any TEAE, n (%) / Pyrexia, Events / Pyrexia, n (%) / Rash, Events / Rash, n (%) / Respiratory, thoracic, and mediastinal disorders, Events / Respiratory, thoracic, and mediastinal disorders, n (%) / Skin and subcutaneous tissue disorders, Events / Skin and subcutaneous tissue disorders, n (%) / Somnolence, Events / Somnolence, n (%) / Vomiting, Events / Vomiting, n (%): n = 8
Procedure: In part 1, Japanese participants were randomized to receive placebo or single dose of ensitrelvir (20, 70, 250, 500, 1,000, and 2,000 mg given to cohorts A, B, C, D, E, and J, respectively), suspended in 0.5% methylcellulose, in the fasted state. Additionally, in cohort C, the effect of food on the pharmacokinetics of ensitrelvir was investigated in a 2-group, 2-period crossover design by administering placebo or ensitrelvir (250 mg) in the fasted or fed (high-fat/high-calorie) state. In part 2, Japanese participants were randomized to receive placebo or multiple doses of ensitrelvir, suspended in 0.5% methylcellulose. The multiple-dose regimens were as follows: once-daily doses of ensitrelvir 375 mg on day 1 and 125 mg on days 2 to 5 (cohort F), or 750 mg on day 1 and 250 mg on days 2 to 6 (cohort G) in the fasted state. White participants were randomized to receive placebo or multiple doses of ensitrelvir. The multiple-dose regimens were as follows: once-daily doses of ensitrelvir 375 mg on day 1 and 125 mg on days 2 to 5 (cohort H). Each cohort included 11 participants. In cohort G, the effect of ensitrelvir on the pharmacokinetics of midazolam (syrup) was evaluated in an open label self-controlled crossover design. Midazolam 2 mg alone was administered 2 days prior to initiating ensitrelvir administration (on day −2) and midazolam was coadministered on day 6 with placebo or ensitrelvir in the fasted state to participants following once-daily doses for 5 days of placebo (days 1 to 5) or ensitrelvir (750 mg on day 1 and 250 mg on days 2–5).
The nature, frequency, and severity of TEAEs were evaluated and recorded.

[2] = Cohort F 375/125 mg, Japanese, listed as ensitrelvir
[3] = Cohort G 750/250 mg + midazolam, Japanese
[4] = Cohort G 750/250 mg + midazolam, Japanese, listed as ensitrelvir
[5] = Cohort H 125 mg, white, listed as ensitrelvir

Cn1cnc(Cn2c(=O)[nH]/c(=N\c3cc4cn(C)nc4cc3Cl)n(Cc3cc(F)c(F)cc3F)c2=O)n1 [Ensitrelvir, ensitrelvir fumaric acid]
CYP3A inhibition classification (CYP3A): strong CYP3A inhibitor | Abdominal pain, Events ([1]; Cohort F 375/125 mg, Japanese): 0 | Abdominal pain, n (%) ([1]; Cohort F 375/125 mg, Japanese): 0 | Blood creatine phosphate increased, Events ([1]; Cohort F 375/125 mg, Japanese): 0 | Blood creatine phosphate increased, n (%) ([1]; Cohort F 375/125 mg, Japanese): 0 | Blood triglyceride increased, Events ([1]; Cohort F 375/125 mg, Japanese): 0 | Blood triglyceride increased, n (%) ([1]; Cohort F 375/125 mg, Japanese): 0 | C-reactive protein increased, Events ([1]; Cohort F 375/125 mg, Japanese): 0 | C-reactive protein increased, n (%) ([1]; Cohort F 375/125 mg, Japanese): 0 | Diarrhea, Events ([1]; Cohort F 375/125 mg, Japanese): 5 | Diarrhea, n (%) ([1]; Cohort F 375/125 mg, Japanese): 4 (50.0) | Dizziness, Events ([1]; Cohort F 375/125 mg, Japanese): 0 | Dizziness, n (%) ([1]; Cohort F 375/125 mg, Japanese): 0 | Feeling hot, Events ([1]; Cohort F 375/125 mg, Japanese): 0 | Feeling hot, n (%) ([1]; Cohort F 375/125 mg, Japanese): 0 | Gastrointestinal disorders, Events ([1]; Cohort F 375/125 mg, Japanese): 5 | Gastrointestinal disorders, n (%) ([1]; Cohort F 375/125 mg, Japanese): 4 (50.0) | General disorders and administration site conditions, Events ([1]; Cohort F 375/125 mg, Japanese): 0 | General disorders and administration site conditions, n (%) ([1]; Cohort F 375/125 mg, Japanese): 0 | Headache, Events ([1]; Cohort F 375/125 mg, Japanese): 0 | Headache, n (%) ([1]; Cohort F 375/125 mg, Japanese): 0 | High-density lipoprotein cholesterol decreased, Events ([1]; Cohort F 375/125 mg, Japanese): 7 | High-density lipoprotein cholesterol decreased, n (%) ([1]; Cohort F 375/125 mg, Japanese): 7 (87.5) | Investigations, Events ([1]; Cohort F 375/125 mg, Japanese): 7 | Investigations, n (%) ([1]; Cohort F 375/125 mg, Japanese): 7 (87.5) | Nausea, Events ([1]; Cohort F 375/125 mg, Japanese): 0 | Nausea, n (%) ([1]; Cohort F 375/125 mg, Japanese): 0 | Nervous system disorders, Events ([1]; Cohort F 375/125 mg, Japanese): 0 | Nervous system disorders, n (%) ([1]; Cohort F 375/125 mg, Japanese): 0 | Oropharyngeal pain, Events ([1]; Cohort F 375/125 mg, Japanese): 0 | Oropharyngeal pain, n (%) ([1]; Cohort F 375/125 mg, Japanese): 0 | Participants with any TEAE, Events ([1]; Cohort F 375/125 mg, Japanese): 12 | Participants with any TEAE, n (%) ([1]; Cohort F 375/125 mg, Japanese): 7 (87.5) | Pyrexia, Events ([1]; Cohort F 375/125 mg, Japanese): 0 | Pyrexia, n (%) ([1]; Cohort F 375/125 mg, Japanese): 0 | Rash, Events ([1]; Cohort F 375/125 mg, Japanese): 0 | Rash, n (%) ([1]; Cohort F 375/125 mg, Japanese): 0 | Respiratory, thoracic, and mediastinal disorders, Events ([1]; Cohort F 375/125 mg, Japanese): 0 | Respiratory, thoracic, and mediastinal disorders, n (%) ([1]; Cohort F 375/125 mg, Japanese): 0 | Skin and subcutaneous tissue disorders, Events ([1]; Cohort F 375/125 mg, Japanese): 0 | Skin and subcutaneous tissue disorders, n (%) ([1]; Cohort F 375/125 mg, Japanese): 0 | Somnolence, Events ([1]; Cohort F 375/125 mg, Japanese): 0 | Somnolence, n (%) ([1]; Cohort F 375/125 mg, Japanese): 0 | Vomiting, Events ([1]; Cohort F 375/125 mg, Japanese): 0 | Vomiting, n (%) ([1]; Cohort F 375/125 mg, Japanese): 0 | Diarrhea, n (%) [1, 2]: 4/8 | High-density lipoprotein cholesterol decreased, n (%) [1, 2]: 7/8 | Abdominal pain, Events [1, 3]: 0 | Abdominal pain, n (%) [1, 3]: 0 | Blood creatine phosphate increased, Events [1, 3]: 1 | Blood creatine phosphate increased, n (%) [1, 3]: 1 (12.5) | Blood triglyceride increased, Events [1, 3]: 2 | Blood triglyceride increased, n (%) [1, 3]: 2 (25.0) | C-reactive protein increased, Events [1, 3]: 1 | C-reactive protein increased, n (%) [1, 3]: 1 (12.5) | Diarrhea, Events [1, 3]: 6 | Diarrhea, n (%) [1, 3]: 4 (50.0) | Dizziness, Events [1, 3]: 1 | Dizziness, n (%) [1, 3]: 1 (12.5) | Feeling hot, Events [1, 3]: 1 | Feeling hot, n (%) [1, 3]: 1 (12.5) | Gastrointestinal disorders, Events [1, 3]: 8 | Gastrointestinal disorders, n (%) [1, 3]: 4 (50.0) | General disorders and administration site conditions, Events [1, 3]: 2 | General disorders and administration site conditions, n (%) [1, 3]: 2 (25.0) | Headache, Events [1, 3]: 6 | Headache, n (%) [1, 3]: 4 (50.0) | High-density lipoprotein cholesterol decreased, Events [1, 3]: 7 | High-density lipoprotein cholesterol decreased, n (%) [1, 3]: 7 (87.5) | Investigations, Events [1, 3]: 11 | Investigations, n (%) [1, 3]: 7 (87.5) | Nausea, Events [1, 3]: 1 | Nausea, n (%) [1, 3]: 1 (12.5) | Nervous system disorders, Events [1, 3]: 11 | Nervous system disorders, n (%) [1, 3]: 5 (62.5) | Oropharyngeal pain, Events [1, 3]: 0 | Oropharyngeal pain, n (%) [1, 3]: 0 | Participants with any TEAE, Events [1, 3]: 33 | Participants with any TEAE, n (%) [1, 3]: 8 (100) | Pyrexia, Events [1, 3]: 1 | Pyrexia, n (%) [1, 3]: 1 (12.5) | Rash, Events [1, 3]: 1 | Rash, n (%) [1, 3]: 1 (12.5) | Respiratory, thoracic, and mediastinal disorders, Events [1, 3]: 0 | Respiratory, thoracic, and mediastinal disorders, n (%) [1, 3]: 0 | Skin and subcutaneous tissue disorders, Events [1, 3]: 1 | Skin and subcutaneous tissue disorders, n (%) [1, 3]: 1 (12.5) | Somnolence, Events [1, 3]: 4 | Somnolence, n (%) [1, 3]: 3 (37.5) | Vomiting, Events [1, 3]: 1 | Vomiting, n (%) [1, 3]: 1 (12.5) | Diarrhea, n (%) [1, 4]: 4/8 | Headache, n (%) [1, 4]: 4/8 | High-density lipoprotein cholesterol decreased, n (%) [1, 4]: 7/8 | Somnolence, n (%) [1, 4]: 3/8 | Abdominal pain, Events ([1]; Cohort H 125 mg, white): 1 | Abdominal pain, n (%) ([1]; Cohort H 125 mg, white): 1 (12.5) | Blood creatine phosphate increased, Events ([1]; Cohort H 125 mg, white): 0 | Blood creatine phosphate increased, n (%) ([1]; Cohort H 125 mg, white): 0 | Blood triglyceride increased, Events ([1]; Cohort H 125 mg, white): 0 | Blood triglyceride increased, n (%) ([1]; Cohort H 125 mg, white): 0 | C-reactive protein increased, Events ([1]; Cohort H 125 mg, white): 0 | C-reactive protein increased, n (%) ([1]; Cohort H 125 mg, white): 0 | Diarrhea, Events ([1]; Cohort H 125 mg, white): 6 | Dizziness, Events ([1]; Cohort H 125 mg, white): 0 | Dizziness, n (%) ([1]; Cohort H 125 mg, white): 0 | Feeling hot, Events ([1]; Cohort H 125 mg, white): 0 | Feeling hot, n (%) ([1]; Cohort H 125 mg, white): 0 | Gastrointestinal disorders, Events ([1]; Cohort H 125 mg, white): 7 | Gastrointestinal disorders, n (%) ([1]; Cohort H 125 mg, white): 4 (50.0) | General disorders and administration site conditions, Events ([1]; Cohort H 125 mg, white): 0 | General disorders and administration site conditions, n (%) ([1]; Cohort H 125 mg, white): 0 | Headache, Events ([1]; Cohort H 125 mg, white): 4 | Headache, n (%) ([1]; Cohort H 125 mg, white): 2 (25.0) | High-density lipoprotein cholesterol decreased, Events ([1]; Cohort H 125 mg, white): 7 | High-density lipoprotein cholesterol decreased, n (%) ([1]; Cohort H 125 mg, white): 7 (87.5) | Investigations, Events ([1]; Cohort H 125 mg, white): 7 | Investigations, n (%) ([1]; Cohort H 125 mg, white): 7 (87.5) | Nausea, Events ([1]; Cohort H 125 mg, white): 0 | Nausea, n (%) ([1]; Cohort H 125 mg, white): 0 | Nervous system disorders, Events ([1]; Cohort H 125 mg, white): 4 | Nervous system disorders, n (%) ([1]; Cohort H 125 mg, white): 2 (25.0) | Oropharyngeal pain, Events ([1]; Cohort H 125 mg, white): 1 | Oropharyngeal pain, n (%) ([1]; Cohort H 125 mg, white): 1 (12.5) | Participants with any TEAE, Events ([1]; Cohort H 125 mg, white): 19 | Participants with any TEAE, n (%) ([1]; Cohort H 125 mg, white): 8 (100) | Pyrexia, Events ([1]; Cohort H 125 mg, white): 0 | Pyrexia, n (%) ([1]; Cohort H 125 mg, white): 0 | Rash, Events ([1]; Cohort H 125 mg, white): 0 | Rash, n (%) ([1]; Cohort H 125 mg, white): 0 | Respiratory, thoracic, and mediastinal disorders, Events ([1]; Cohort H 125 mg, white): 1 | Respiratory, thoracic, and mediastinal disorders, n (%) ([1]; Cohort H 125 mg, white): 1 (12.5) | Skin and subcutaneous tissue disorders, Events ([1]; Cohort H 125 mg, white): 0 | Skin and subcutaneous tissue disorders, n (%) ([1]; Cohort H 125 mg, white): 0 | Somnolence, Events ([1]; Cohort H 125 mg, white): 0 | Somnolence, n (%) ([1]; Cohort H 125 mg, white): 0 | Vomiting, Events ([1]; Cohort H 125 mg, white): 0 | Vomiting, n (%) ([1]; Cohort H 125 mg, white): 0 | Diarrhea, n (%) [1, 5]: 4/8 | Headache, n (%) [1, 5]: 2/8 | High-density lipoprotein cholesterol decreased, n (%) [1, 5]: 7/8 | course of the decrease in HDL-C levels ([1]; single- and multiple-dose administration): transient and generally reverted to the baseline values
